This experiment deals with C666-1 cells. Briefly: C666-1 cell viability single concentration (50 μM) inhibition rate (Resazurin). Type of experiment: cell-based. To be noted: 50 μM compound, 72 hours, C666-1 cells; for inhibition at 50 µM: Homo sapiens, C6661, 72 h, read-out: C666-1 cell viability single concentration (50 μM) inhibition rate, Ratio* (Inh %). In outline:
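EBV-positive C666-1 cells (5×10^3/well), pre-cultured 24 h, were exposed to compound at 50 μmol/L final for 72 h at 37° C, 5% CO2, in duplicate. Viability by resazurin (3 h, ex 560/em 590 nm); inhibition rate computed relative to DMSO control and medium-only blank.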

On to `Cc1cc(CO)ccc1OC1CN(c2cccc(C(=O)O)c2-n2cccc2)C1` [Example 300, 3-(3-(4-(hydroxymethyl)-2-methylphenoxy)azetidin-1-yl)-2-(1H-pyrrol-1-yl)benzoic acid], for which the inhibition at 50 µM was under 10%. For `COC(=O)c1cccc(N2CC(Oc3ccc(CO)cc3)C2)c1-c1ccc2cc[nH]c2c1` [Compound 39, Methyl 3-(3-(4-(hydroxymethyl)phenoxy)azetidin-1-yl)-2-(1H-indol-6-yl)benzoate], the inhibition at 50 µM lay in the range of 30 to 50%. On to `COC(=O)c1cccc(N2CC(S(=O)(=O)C3CCCCC3)C2)c1-n1cccc1` [Example 355, Methyl 3-(3-(cyclohexylsulfonyl)azetidin-1-yl)-2-(1H-pyrrol-1-yl)benzoate], for which the inhibition at 50 µM lay within 10 to 30%.

As for `CC(=O)Nc1ccc(OC2CN(c3cccc(C(=O)O)c3-n3cccc3)C2)cc1` [Example 121, 3-(3-(4-acetylaminophenoxy)azetidin-1-yl)-2-(1H-pyrrol-1-yl)benzoic acid], the inhibition at 50 µM was under 10%.

Regarding `O=C(NCc1cccs1)c1cccc(N2CC(Oc3ccc(CO)cc3)C2)c1-n1cccc1` [Example 231, N-(thiophen-2-yl-methyl)-3-(3-(4-(hydroxymethyl)phenoxy)azetidin-1-yl)-2-(1H-pyrrol-1-yl)benzamide], the inhibition at 50 µM is 10 to 30%. For the compound `COC(=O)c1cccc(N2CC(Oc3ccc(NC(=S)Nc4ccccc4OC)cc3)C2)c1-n1cccc1` [Example 119, Methyl 3-(3-(4-(3-(2-methoxyphenyl)thioureido)phenoxy)azetidin-1-yl)-2-(1H-pyrrol-1-yl)benzoate], the inhibition at 50 µM was in the range of 10 to 30%. `COC(=O)c1cccc(N2CC(Oc3ccc(N)cc3)C2)c1-n1cccc1` [Example 253, Methyl 3-(3-(4-aminophenoxy)azetidin-1-yl)-2-(1H-pyrrol-1-yl)benzoate]: the inhibition at 50 µM is 10 to 30%.

As for `COC(=O)c1cccc(N2CC(Oc3ccc(COc4cncc(F)c4)cc3)C2)c1-n1cccc1` [Example 358, Methyl 3-(3-(4-(((5-fluoropyridin-3-yl)oxy)methyl)phenoxy)azetidin-1-yl)-2-(1H-pyrrol-1-yl)benzoate], the inhibition at 50 µM fell in the range of 10 to 30%. As to `O=C(Nc1ccc(OC2CN(c3cccc(C(=O)O)c3-n3cccc3)C2)cc1)Nc1ccc(C(F)(F)F)cc1` [Example 230, 3-(3-(4-(3-(4-(trifluoromethyl)phenyl)ureido)phenoxy)azetidin-1-yl)-2-(1H-pyrrol-1-yl)benzoic acid], the inhibition at 50 µM lay within 10 to 30%. On to `COC(=O)c1cccc(N2CC3(C2)CN(c2cccc(C(=O)OC)c2N)C3)c1` [Compound 15, Methyl 2-amino-3-(6-(3-(methoxycarbonyl)phenyl)-2,6-diazaspiro[3.3]heptan-2-yl)benzoate], for which the inhibition at 50 µM is under 10%.

For the compound `COC(=O)c1cccc(N2CC(Oc3ccc(NC(=O)Nc4ccc(C(F)(F)F)cc4)cc3)C2)c1-n1cccc1` [Example 229, Methyl 3-(3-(4-(3-(4-(trifluoromethyl)phenyl)ureido)phenoxy)azetidin-1-yl)-2-(1H-pyrrol-1-yl)benzoate], the inhibition at 50 µM was over 50%. On the same count and under the same terms, as for `O=C(O)c1cccc(N2CC(Oc3ccc(COCCO)cc3)C2)c1-n1cccc1` [Example 373], the figure is under 10%. Turning to `CCCCCCNC(=O)Nc1ccc(OC2CN(c3cccc(C(=O)OC)c3-n3cccc3)C2)cc1` [Example 132, Methyl 3-(3-(4-(3-hexylureido)phenoxy)azetidin-1-yl)-2-(1H-pyrrol-1-yl)benzoate], the inhibition at 50 µM was under 10%. Regarding `CCC(=O)c1ccc(OC2CN(c3cccc(C(=O)O)c3-n3cccc3)C2)cc1` [Example 215, 3-(3-(4-propionylphenoxy)azetidin-1-yl)-2-(1H-pyrrol-1-yl)benzoic acid], the inhibition at 50 µM is under 10%. As for `CC(=O)Nc1cccc(N2CC3(C2)CN(c2cccc(C(=O)O)c2N)C3)c1` [Compound 30, 3-(6-(3-acetylaminophenyl)-2,6-diazaspiro[3.3]heptan-2-yl)-2-aminobenzoic acid], the inhibition at 50 µM is under 10%. Still for that read-out and setting: as for `O=C(O)c1cccc(N2CC(Oc3ccc(Oc4ccccc4)c(F)c3)C2)c1-n1cccc1` [Example 201, 3-(3-(3-fluoro-4-phenoxyphenoxy)azetidin-1-yl)-2-(1H-pyrrol-1-yl)benzoic acid], the figure is 30 to 50%; as for `COC(=O)c1cccc(N2CC([S+]([O-])c3ccc(C)cc3)C2)c1-n1cccc1` (centres unmarked) [Example 191, Methyl 2-(1H-pyrrol-1-yl)-3-(3-(p-tolylsulfinyl)azetidin-1-yl)benzoate], 10 to 30%; as for `COC(=O)c1cccc(N2CC(Oc3ccc(CO)cc3)C2)c1-c1cccc(F)c1` [Compound 50], 10 to 30%.

Regarding `O=C(O)c1cccc(N2CC(OCc3cnccn3)C2)c1-n1cccc1` [Example 143], the inhibition at 50 µM is under 10%. `COC(=O)c1cccc(N2CC(Oc3ccc(CO)cc3)C2)c1-c1cc2ccccc2s1` [Example 395, Methyl 2-(benzo[b]thiophen-2-yl)-3-(3-(4-(hydroxymethyl)phenoxy)azetidin-1-yl)benzoate]: the inhibition at 50 µM lay in the range of 10 to 30%. As to `O=C(COC1CN(c2cccc(C(=O)O)c2-n2cccc2)C1)Nc1ccccc1` [Example 145, 3-(3-(2-oxo-2-(phenylamino)ethoxy)azetidin-1-yl)-2-(1H-pyrrol-1-yl)benzoic acid], the inhibition at 50 µM is under 10%. `COC(=O)c1cccc(N2CC(Oc3ccc(Oc4cccc(OC)c4)cc3)C2)c1-n1cccc1` [Example 196, Methyl 3-(3-(4-(3-methoxyphenoxy)phenoxy)azetidin-1-yl)-2-(1H-pyrrol-1-yl)benzoate]: the inhibition at 50 µM is under 10%. Regarding `COC(=O)c1cccc(C#CN(Cc2ccc(F)cc2)S(=O)(=O)c2ccc(C)cc2)c1-n1cccc1` [Example 344], the “C666-1 cell viability single concentration (50 μM) inhibition rate, Ratio* (Inh %)” value is listed as “+ (*Inh %: <10% +)”. Take `COC(=O)c1cccc(N2CC(Oc3ccc(OCCNC(C)=O)cc3)C2)c1-n1cccc1` [Example 312, Methyl 3-(3-(4-(2-acetylaminoethoxy)phenoxy)azetidin-1-yl)-2-(1H-pyrrol-1-yl)benzoate]: the inhibition at 50 µM was 30 to 50%. With `O=C(O)c1cccc(N2CC(Oc3ccc(CO)cc3)C2)c1` [Compound 35, 3-(3-(4-(hydroxymethyl)phenoxy)azetidin-1-yl)benzoic acid], the inhibition at 50 µM fell in the range of 10 to 30%.

Take `COC(=O)c1cccc(N2CC(Oc3ccc(Oc4ccc(C(F)(F)F)cc4)cc3)C2)c1-n1cccc1` [Example 291, Methyl 3-(3-(4-(4-(trifluoromethyl)phenoxy)phenoxy)azetidin-1-yl)2-(1H-pyrrol-1-yl)benzoate]: the inhibition at 50 µM is under 10%. In the case of `COC(=O)c1cccc(C#CN(Cc2ccccc2)S(=O)(=O)c2ccc3occc3c2)c1-n1cccc1` [Example 330, Methyl 3-((N-benzylbenzofuran-5-sulfonamido)ethynyl)-2-(1H-pyrrol-1-yl)benzoate], the inhibition at 50 µM is over 50%. `COC(=O)c1cccc(C#CN(Cc2ccncc2)S(=O)(=O)c2ccc(C)cc2)c1-n1cccc1` [Example 389]: the inhibition at 50 µM is over 50%. For the compound `COC(=O)c1cccc(C23CC(c4ccccc4)(C2)C3)c1-n1cccc1` [Compound 5, Methyl 3-(3-phenylbicyclo[1.1.1]pentan-1-yl)-2-(1H-pyrrol-1-yl)benzoate], the inhibition at 50 µM was under 10%.
